Marks after values point to notes of the source that are not given here.
Columns and labels:
[1] = Mechanical properties measurement (3-point bend tests); format: physicochemical; details: for Flexural elastic modulus / Work of Fracture / Flexural ultimate strength: 24-h, mean(std. dev.), n=6, BT and SIL-MIX alone; for Flexural ultimate strength: the values are: Ultimate (flexural) strength
Method: In this example, the elastic modulus, ultimate strength, and work of fracture were determined for the monomers of the present invention. […] The resin was injected into the mold and cured by irradiation (500 mW/cm^2) followed by storage in the dark for 4 hours and 24 hours before mechanical tests were conducted. Three point bending tests were conducted using an electromagnetic mechanical testing machine (Enduratec Model 3200) with a 20-mm span and at a crosshead displacement rate of 0.5mm/ min at room temperature (25° C.). Load-displacement data were collected at 100 Hz. […] Flexural ultimate strength was determined from the peak loads and work of fracture was determined from the area under the stress-strain curve.

[2] = Oxirane ring-opening (oxirane conversion) via FTIR; format: physicochemical; details: thin film, 10 min irradiation
Method: In this example, the oxirane ring-opening of monomers 1 (DEBAOM-1,5,7,11-TOSU) or 6 (DEBTMSPOM-1,5,7,11-TOSU) was investigated using FTIR. All FTIR spectra were acquired using a Perkin-Elmer BX II FTIR spectrophotometer. The identification of the location of the oxirane absorption band in the IR spectrum of Siloranes was achieved by methanolysis. A sample was dissolved in CH2Cl2 and exposed to CH30H in the presence of a catalytic amount of zinc tetrafluoroborate hydrate overnight. The mixture was evaporated onto a salt plate. An FTIR spectrum was acquired and compared to pre-exposure spectrum. There was a significant decrease in the oxirane absorption region at 882-886 cm^−1. This band was selected as the absorption to monitor for following the oxirane ring-opening reaction.
Analytical samples contained siloranes I, II, or SIL-MIX with and without 50 mol % of monomer 1 (DEBAOM-1,5,7,11-TOSU) or 6 (DEBTMSPOM-1,5,7,11-TOSU). A thin film was brushed onto a salt plate. Irradiation (10 minutes at 23 to 25° C. and R. H.=40-45%) was provided by a 3M XL2500 curing light positioned 1-cm above the sample surface. The light intensity was measured at 360 mW/cm^2 on the sample surface. The oxirane band absorption and an internal reference band absorption were assessed before and after irradiation. Oxirane conversion (alpha) was calculated according to equation (1) by Pan et al., Polym Int 2000, 49, 74. [formula] where subscripts 0 and t represent pre-irradiation and post-irradiation respectively.

[3] = Photopolymerization stress measurement (tensilometer); format: physicochemical; details: for Polymerization Stress: mean(std. dev.), n=3, TOSU monomers 20 mol % in SIL-MIX, BT and SIL-MIX alone
Method: In this example, the photopolymerization stress of the monomers of the present invention was investigated. Stress generated during photopolymerization was measured (n=3) using an electromagnetic mechanical testing machine (Enduratec Model 3200, Bose Corp., Minnetonka, Minn.) adapted to be a tensilometer. See Feilzer et al., Dent. Mater. […] Briefly, two identical glass rods, 5 mm in diameter, were placed opposing one another and separated by 1 mm (C-factor=2.5). A displacement transducer (LVDT, Enduratec, 0.1 μm resolution, range ±1 mm) was mounted on one glass rod and was touching a plate attached to the opposing glass rod. The distance between the mounts on the opposing glass rods was about 9 mm (including the 1 mm separation between the rods). Samples placed between the glass rods were cured by irradiation (500 mW/cm^2), while under LVDT displacement control. Load-displacement data were collected at 200 Hz for 30 mins. […] From the load-displacement data, peak loads were obtained and normalized by the original area to obtain the polymerization stresses.

[4] = Photoreactivity assessment (photo DSC enthalpy of polymerization); format: physicochemical; details: for ΔHexp / ΔHcalc / Net Enthalpy ΔH: 3 wt % PI; for ΔH (experimental)/ΔH (calculated): calculated for an inert diluent; for Exotherm Peak Maximum / Net Enthalpy ΔH: TOSU monomers 20 mol % in SIL-MIX, SIL-MIX alone; for Net Enthalpy ΔH: experimental, 1 wt % CQ, 0.1 wt % ED, 400-500 nm, 10 min, 25° C., n=1
Description: In this example, the photoreactivity of various combinations of SIL-MIX alone or SIL-MIX with 3,9-diethyl-3,9-bis(allyloxymethyl)-1,5,7,11-tetraoxaspiro[5.5]undecane (DEBAOM-1,5,7,11-TOSU) 1; 3,9-bis(3-trimethylsilylpropyl)-1,5,7,11-tetraoxaspiro[5.5]undecane (BTMSP-1,5,7,11-TOSU) 2; 3,9-bis(allyloxymethyl)-2,4,8,10-tetraoxaspiro[5.5]undecane (BAOM-2,4,8,10-TOSU) 3; 3,9-bis(2-trimethylsilylethyl)-[…] (BTMSE-2,4,8,10-TOSU) 4; 3,3-diethyl-11,12-epoxy-1,5,7,16-tetraoxadispiro[5.2.5.2]hexadecane (DECHE-1,5,7,11-TOSU) 5; and 3,9-diethyl-3,9-bis(3-trimethylsilylpropyloxymethyl)-1,5,7,11-tetraoxaspiro[5.5]-undecane (DEBTMSPOM-1,5,7,11-TOSU) 6 was investigated. The photoreactivity assessments (n=1) were made using an EXFO Novacure light curing unit interfaced with a Perkin-Elmer Diamond DSC. The experimental conditions were as follows: 25° C.; N2 atmosphere; 400-500 nm light; 3 mm quartz light guides; output: 500 mW/cm measured 15 mm from sample surface. The sample weights were 15-18 mg. Standard A1 pans were used. An empty pan was placed in the reference position. Irradiation time was for 10 minutes following a 1 minute equilibration. After the initial run, the sample was re-irradiated for an additional 10 minutes. This second curve was subtracted from the initial exotherm curve to zero out artifacts due to beginning and ending of irradiation, and to compensate for the heat capacity differences between the sample pan and empty reference pan. Integrations were from time t=1.1 (lamp shutter opened) min to 11.1 min (lamp shutter closed).
In this example, reaction mixtures containing 0 or 20 mol % of TOSU monomers 1, 2, 3, 4, and 5 in SIL-MIX were formulated with 4.1 wt % photoinitiator system (3 wt % PI; 1 wt % CQ; 0.1 wt % ED). Formulated mixtures were heated for 5 minutes on an oil bath at about 60° C. and stirred magnetically to aid dissolution of the photoinitiator system and inventive monomer. Formulations were prepared and stored away from ambient light. Mixtures were tested for photoreactivity the same day as prepared.
The effect of doubling the photoinitiator (PI) content from 3 wt % to 6 wt % was also determined for selected mixtures. As in Example 7(a) above, reaction mixtures (about 2 g) were formulated with 4.1 wt % photoinitiator system (3 wt % PI; 1 wt % CQ; 0.1 wt % ED) except where noted. Formulated mixtures were heated for 5 minutes on an oil bath @ 60° C. and stirred magnetically to dissolve the photoinitiator system and 6 (DEBTMSPOM-1,5,7,11-TOSU) when included. Formulations were prepared and stored away from ambient light and tested the same day as prepared.

[5] = 20 mol % in SIL-MIX, Dunnett's test p=0.05
[6] = TOSU monomers 20 mol % in SIL-MIX

Structure (SMILES) | elastic modulus values compared with the methacrylate control (BT) [1, 5] | ultimate strength values compared with the methacrylate control (BT) [1, 5] | Flexural elastic modulus [1, 6] [GPa] | Work of Fracture [1, 6] | Flexural ultimate strength [1, 6] [MPa] | Polymerization Stress [3] | ΔH (experimental)/ΔH (calculated) ([4]; 20 mol % in SIL-MIX) [%] | Exotherm Peak Maximum [4] [s] | Net Enthalpy ΔH [4] | also measured
C=CCOCC1(CC)COC2(OC1)OCC(CC)(COCC=C)CO2 (centres unmarked) [Monomer 1, 3,9-diethyl-3,9-bis(allyloxymethyl)-1,5,7,11-tetraoxaspiro[5.5]undecane] | significantly lower | significantly lower | 2.2 | 5.82 (2.02) kJ/m^2 | 84.6 | 0.17 (0.06)* N/mm^2 | 80 | 14 | −116^b J/g | Oxirane Conversion ([2]; comonomer 50 mol % in PH-SIL (I)): 36%; Oxirane Conversion ([2]; comonomer 50 mol % in TET-SIL (II)): 27%; ΔHexp ([4]; 20 mol % in SIL-MIX): -124 J/g; ΔHexp ([4]; 50 mol % in PH-SIL): -78 J/g; ΔHcalc ([4]; calculated for inert diluent instead of TOSU at 20 mol %): -154 J/g; ΔHcalc ([4]; calculated for inert diluent instead of TOSU at 50 mol % in PH-SIL): -104 J/g; experimental ΔH as % of the calculated ΔH ([4]; 20% in SIL-MIX): 81%; experimental value as % of the calculated value (ΔH) ([4]; 50% in Ph-Sil): 75%
C[Si](C)(C)CCCC1COC2(OC1)OCC(CCC[Si](C)(C)C)CO2 (centres unmarked) [Monomer 2, 3,9-bis(3-trimethylsilylpropyl)-1,5,7,11-tetraoxaspiro[5.5]undecane] | significantly lower | significantly lower | 1.9 | 1.12 (0.42)* kJ/m^2 | 42.4 | 0.23 (0.06)* N/mm^2 | 54 | 14 | −78^b J/g | work of fracture values compared with the methacrylate control (BT) [1, 5]: significantly lower; all mechanical properties, overall comparison (with BT control and among formulations) ([1]; TOSU monomers 20 mol % in SIL-MIX, SIL-MIX alone): lowest mechanical property values
C=CCOCC1OCC2(CO1)COC(COCC=C)OC2 (centres unmarked) [Monomer 3, 3,9-bis(allyloxymethyl)-2,4,8,10-tetraoxaspiro[5.5]undecane] | significantly lower | significantly lower | 2.13 | 7.17 (1.58) kJ/m^2 | 87.8 | 1.20 (0.17)* N/mm^2 | 117 | 15 | −170^b J/g | enthalpies above those calculated for addition of an inert diluent ([4]; 20 mol % in SIL-MIX): 17%
C[Si](C)(C)CCC1OCC2(CO1)COC(CC[Si](C)(C)C)OC2 (centres unmarked) [Monomer 4, 3,9-bis(2-trimethylsilylethyl)-2,4,8,10-tetraoxaspiro[5.5]undecane] |  | significantly lower | 2.36 | 5.63 (1.82) kJ/m^2 | 92.2 | 6.90 (1.76)* N/mm^2 | 117 | 17 | −170^b J/g | Photopolymerization stress reduced ([3]; 20 mol % in SIL-MIX): 40%; enthalpies above those calculated for addition of an inert diluent ([4]; 20 mol % in SIL-MIX): 17%
CCC1(CC)COC2(OC1)OCC1(CCC3OC3C1)CO2 (centres unmarked) [Monomer 5, 3,3-diethyl-11,12-epoxy-1,5,7,16-tetraoxadispiro[5.2.5.2]hexadecane] |  |  | 2.58 | 5.33 (1.09) kJ/m^2 | 96 | 0.33 (0.15)* N/mm^2 | 57 | 16 | −82^b J/g | melting point: 67.4 °C
C[Si](CCC1CCC2OC2C1)(CCC1CCC2OC2C1)c1ccccc1 (centres unmarked) [PH-SIL, methylbis[2-(7-oxabicyclo[4.1.0]hept-3-yl)ethyl]phenylsilane, reference compound] |  |  |  |  |  |  |  |  |  | Oxirane Conversion ([2]; silorane without comonomer): 31%; ΔHexp ([4]; 100% silorane): -208 J/g
C[Si]1(CCC2CCC3OC3C2)O[Si](C)(CCC2CCC3OC3C2)O[Si](C)(CCC2CCC3OC3C2)O[Si](C)(CCC2CCC3OC3C2)O1 (centres unmarked) [TET-SIL, 2,4,6,8-tetramethyl-2,4,6,8-tetrakis-[2-(7-oxabicyclo[4.1.0]hept-3-yl)ethyl]-1,3,5,7-tetraoxa-2,4,6,8-tetrasilacyclooxtane, reference compound] |  |  |  |  |  |  |  |  |  | Oxirane Conversion ([2]; silorane without comonomer): 13%
